From US20120283200A1, “PHARMACEUTICAL COMPOSITION AND METHOD FOR PREVENTING OR TREATING CHRONIC HEART DISEASE” (CHINA MEDICAL UNIVERSITY, priority 2011, published 2012)

Test system: H9c2 cells
Test: Cell viability assay (MTT) of H9c2 cells in hypoxia-reoxygenation model
Assay type: cell-based, rat
Details: added 1 hour before hypoxia, 6 h hypoxia, 12 h reoxygenation, compounds 1, 3, 10 μM, metformin 10, 30, 100 μM, compared to the sham group, FIG. 1(b)
Experimental: Cell Viability Assay of H9c2 Cell in Hypoxia-Reoxygenation Model
Rat embryonic ventricular myoblast cell line, H9c2, are cultured in a DMEM medium supplemented with 10% fetal bovine serum (FBS), penicillin (10 U/mL), streptomycin (100 μg/mL) and amphotericin B (0.25 μg/mL) in 37° C. humidified 5% carbon dioxide (CO2) incubator. When the plate becomes confluent, maintain the culture at a 1:4 subculture split.
(1) H9c2 cells are cultured on a 60 mm plate (6×10^5 cells/plate) containing 10% FBS DMEM (high glucose DMEM) for 24 hours. The medium is replaced with DMEM with no serum for the starvation. At the same time, a medium containing DMEM with no glucose and no serum is adjusted to pH 6.8 and placed into a hypoxia chamber (95% N2 and 5% CO2, 37° C.) where the oxygen partial pressure is controlled to be less than 2% for a pretreatment for 24 hours. […]
Please refer to FIGS. 1(a) and 1(b), which are diagrams showing the effects of the compounds in the present invention and metformin on the viability of cells treated by the hypoxia-reoxygenation. The results are represented by the absorbance (OD) values of the hypoxia-reoxygenation treated group (IR OD)/the OD values of the control group (control OD) in FIG. 1(a) and the OD values of the drug-treated group (drug OD)/the OD values of the sham group (sham OD).

Compound | viability of the cells treated with the hypoxia-reoxygenation (drug OD/sham OD)
COc1cc(/C=C/C(=O)OCC2OC(Oc3ccc(C[C@H]4CO[C@H](c5ccc(O)c(OC)c5)[C@H]4CO)cc3OC)C(O)C(O)C2O)ccc1O (stereo partly drawn) [RS-47, lariciresinol 4′-(6″-O-feruloyl-β-D-glucopyranoside)] | significantly increased
CN(C)C(=N)N=C(N)N [metformin] | significantly increased
